#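 Exposure lasted 48 hours, with cells grown in 96-well plates and compounds tested at five concentrations. GI50 = concentration required for 50% inhibition of growth. TGI: total growth inhibition.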
# How the values were obtained:
# Assay in all cases: NCI anticancer screen, dose series, 48 h
# NCI-H23 lung = system: NCI-H23 lung
# TK-10 renal = system: TK-10 renal
# NCI-H226 lung = system: NCI-H226 lung
# A549 NSCLC = system: A549 NSCLC
# M14 melanoma = system: M14 melanoma
# OVCAR-4 ovarian = system: OVCAR-4 ovarian
# MOLT-4 leukemia = system: MOLT-4 leukemia
# SK-MEL-28 melanoma = system: SK-MEL-28 melanoma
# HOP-62 NSCLC = system: HOP-62 NSCLC
# NCI-H460 lung = system: NCI-H460 lung
SMILES,GI50 (NCI-H23 lung),TGI (NCI-H23 lung),GI50 (TK-10 renal),TGI (TK-10 renal),GI50 (NCI-H226 lung),TGI (NCI-H226 lung),GI50 (A549 NSCLC),TGI (A549 NSCLC),GI50 (M14 melanoma),TGI (M14 melanoma),GI50 (OVCAR-4 ovarian),TGI (OVCAR-4 ovarian),GI50 (MOLT-4 leukemia),TGI (MOLT-4 leukemia),GI50 (SK-MEL-28 melanoma),TGI (SK-MEL-28 melanoma),GI50 (HOP-62 NSCLC),TGI (HOP-62 NSCLC),TGI (NCI-H460 lung)
O=C1c2ccccc2-c2c1c1ccccc1c(=O)n2CCCNCCNCCCn1c2c(c3ccccc3c1=O)C(=O)c1ccccc1-2,0.508 µM,2.57 µM,0.279 µM,2.08 µM,< 0.0267 µM,1.98 µM,0.0534 µM,1.63 µM,0.288 µM,1.93 µM,0.694 µM,4.56 µM,< 0.01 µM,> 100 µM,1.09 µM,> 100 µM,< 0.0172 µM,0.582 µM,
CCC12CCC[C@@]13C=C[C@H](O3)C(C)(C)C2=O (some centres undefined),,> 100 µM,,> 100 µM,,> 100 µM,,> 100 µM,,> 100 µM,,> 100 µM,,> 100 µM,,,,> 100 µM,> 100 µM
CC1(C)N=C(/C(Cl)=[N+](/[O-])C(=O)c2ccc(Cl)cc2)C(C)(C)N1O,,48.6 µM,,38.8 µM,,72.6 µM,,> 100 µM,,32.1 µM,,68.5 µM,,,,37.3 µM,,> 100 µM,> 100 µM
Cc1ccc(NC(=O)CC/C(CC(=O)C(C)(C)C)=N/NC(=O)c2cc3ccccc3cc2O)cc1C,,47.6 µM,,,,> 100 µM,,,,96 µM,,> 100 µM,,> 100 µM,,> 100 µM,,> 100 µM,> 100 µM

# Reference: PubChem BioAssay (NCI)
